{
  "source": "patent US20070238757A1",
  "about": "“NOVEL TREATMENT” (SmithKline Beecham p.l.c., priority 2000, published 2007)",
  "tested_on": "rat primary hippocampal neurons",
  "test": "Neurite outgrowth assay in primary hippocampal neurons",
  "type": "cell-based",
  "conditions": "48 hours, FIG. 2",
  "method": "The hippocampi of gestational day 18 rat embryos were dissected out, incubated in trypsin (0.08%, 30 min at 37° C.) and dissociated mechanically (Skaper et al., 19990). Hippocampal cells were resuspended in neurobasal medium supplemented with B27, anti-oxidants, 1 mM glutamine, 25 μM glutamate, 1 mM pyruvate, +/−Compound 1 (10 nM-5 μM) or vehicle (DMSO) control.\nFor outgrowth assays, cells were plated at a density of 3000 cells/well into 96 well dishes that had previously been coated with poly-D-lysine followed by 10% FCS. For RNA isolation, cells were plated at 1×10^6 cells/well into a 35 mm tissue culture dish that had previously been coated with poly-D-lysine followed by 10% FCS.\nCompound (I) was solubilised in DMSO and added to culture medium at time of cell plating at a dilution of 1:1000. Vehicle only (1:1000) was added to culture medium of untreated controls. […] Assays were quantified using a KS300 image analysis system (Imaging Associates, UK). For each cell measured, the length from the edge of the cell to the end of the longest neurite was measured for 100 cells/well for each treatment in triplicate. […] Results are expressed as a percentage of the length of neurites of cells treated with vehicle alone.\n# Compound (I) at 0.01 and 0.05 μM has been analysed in one experiment only (n=3)",
  "data": [
    {"smiles": "CN(CCOc1ccc(CC2SC(=O)NC2=O)cc1)c1ccccn1", "note": "(centres unmarked) [Compound (I), 5-(4-[2-(N-methyl-N-(2-pyridyl)amino)ethoxy]benzyl)-2,4-thiazolidinedione]", "values": [
      {"measurement": "neurite outgrowth (effect in words)", "setting": "10 nM-5 μM added at time of cell plating", "value": "increases neurite outgrowth in rat primary hippocampal neurons in a dose dependant manner"},
      {"measurement": "increase of neurite outgrowth over untreated controls", "setting": "Compound at 100 nM, length of longest neurite relative to cells treated with vehicle (DMSO) alone", "value": "approx. 50%"}
    ]}
  ]
}
